The Kd is the constant that tells how readily two partners part at equilibrium. As usually defined, the inhibition is the drop in the measured response relative to a control, in per cent.

The text below walks through data of patent US5885987A, “Phenylene derivatives” (Kowa Co., Ltd., priority 1996, dated 1999).

Assay [1] has as its target T1, LTD4 receptor (Cavia porcellus, UniProt Q2NNR5).
T1 construct: guinea pig pulmomembranous protein; from tissue; host or cells: guinea pig lung membranes
T1 sequence (Q2NNR5 1-340): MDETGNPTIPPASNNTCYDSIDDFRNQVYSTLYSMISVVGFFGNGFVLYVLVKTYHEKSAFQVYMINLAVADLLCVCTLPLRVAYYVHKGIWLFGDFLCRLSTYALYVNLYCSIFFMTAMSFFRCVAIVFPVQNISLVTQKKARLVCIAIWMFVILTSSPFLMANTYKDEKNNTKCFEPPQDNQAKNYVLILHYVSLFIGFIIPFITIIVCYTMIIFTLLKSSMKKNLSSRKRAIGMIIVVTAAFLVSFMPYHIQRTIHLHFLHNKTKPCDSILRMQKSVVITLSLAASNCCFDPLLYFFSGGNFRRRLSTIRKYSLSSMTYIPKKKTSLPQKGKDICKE
In words: LTD4 receptor binding inhibition test ([^3 H]leukotriene D4, guinea pig pulmomembranous protein). The settings on record: for Kd: read-out: LTD4 receptor, dissociation constant KD; for inhibition at 10 µM: b: 10 μM; for inhibition at 10 µM / inhibition at 100 µM: read-out: LTD4 receptor (%), inhibition rate; for inhibition at 100 µM: a: 100 μM. As to the method: 2) LTD4 Receptor Binding Inhibition Test
An ice-cooled tris hydrochloride/sodium chloride buffer (10 mM/100 mM, pH 7.5) was added to terminate the reaction, followed by immediate filtration through a Wattman CF/C filter. The filter was washed twice with 20 ml aliguots of the ice-cooled buffer. The radioactivity of the residue was measured by a liquid scintillation counter. […] In a binding assay, 2 μM leukotriene D4 was used for the measurement of a nonspecific binding.

Assay [2] deals with T2, H1 receptor (Cavia porcellus, UniProt P31389).
T2 construct: guinea pig cerebromembranous protein; from tissue; host or cells: guinea pig cerebral (brain) membranes
In words: H1 receptor binding inhibition test ([^3 H]mepyramin, guinea pig cerebromembranous protein). The settings on record: for inhibition at 100 µM: a: 100 μM, read-out: H1 receptor (%), inhibition rate; for Kd: read-out: H1 receptor, dissociation constant KD. As to the method: 1) H1 Receptor Binding Inhibition Test
An ice-cooled phosphate buffer was added to terminate the reaction, followed by immediate filtration through a Wattman CF/C filter. The filter was washed twice with 20 ml aliquots of the ice-cooled buffer. The radioactivity of the residue was measured by a liquid scintillation counter. From a measurement value obtained without the addition of the test compound and measurements values obtained upon addition of the test compound at various concentrations, the dose-response of the inhibitory action of the test compound was measured and the 50% inhibitory concentration (IC50) was determined. Using the Cheng-Prusoff formula, a dissociation constant was calculated from the IC50. In a binding assay, 10^-4 M R(-)dimethindene was used for the measurement of a nonspecific binding.

Read-outs that look alike come from different tables or passages of the source.

T2 sequence (P31389 whole entry): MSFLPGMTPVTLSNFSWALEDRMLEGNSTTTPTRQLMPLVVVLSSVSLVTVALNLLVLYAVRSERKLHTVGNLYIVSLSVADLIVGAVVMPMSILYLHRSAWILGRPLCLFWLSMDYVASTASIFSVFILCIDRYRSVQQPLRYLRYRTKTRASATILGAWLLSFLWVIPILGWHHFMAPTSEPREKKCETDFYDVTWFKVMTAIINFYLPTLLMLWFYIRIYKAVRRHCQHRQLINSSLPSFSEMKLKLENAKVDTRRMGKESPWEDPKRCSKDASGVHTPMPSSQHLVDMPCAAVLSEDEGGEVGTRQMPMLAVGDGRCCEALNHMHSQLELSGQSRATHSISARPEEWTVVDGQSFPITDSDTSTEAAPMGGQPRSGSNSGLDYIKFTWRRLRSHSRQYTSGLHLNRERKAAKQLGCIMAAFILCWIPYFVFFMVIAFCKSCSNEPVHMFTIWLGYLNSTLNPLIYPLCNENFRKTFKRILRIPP

Regarding `Cc1ccc(OCc2cccc(OCc3nc4ccccc4n3C)c2)c2c1NC(=O)C2(C)C` [Example 37, 4-[3-(N-methylbenzimidazol-2-yl-methoxy)benzyloxy)-3,3,7-trimethyl-2,3-hydro-1H-indol-2-one], the Kd in assay [1] amounted to 204 nM. In assay [2], the inhibition at 100 µM came out at 28%.

Consider `Cn1c(COc2ccc(COc3ccc4c(c3)SCC(=O)N4)cc2)nc2ccccc21` [Example 38, 7-(4-(N-methylbenzimidazol-2-yl-methoxy)benzyloxy]-3,4-dihydro-2H-1,4-benzothiazin-3-one], for which the Kd in assay [1] amounted to 303 nM. In assay [2], the inhibition at 100 µM was 47%.

Consider `O=C1CSc2cc(OCc3cccc(OCc4nc5ccccc5s4)c3)ccc2N1` [Example 40, 7-[3-(2-benzothiazolylmethoxy)benzyloxy)-3,4-dihydro-2H-1,4-benzothiazin-3-one], for which, in assay [1], the Kd stood at 1390 nM. In addition, the inhibition at 100 µM in assay [2] worked out at 43%.

`O=C1CCc2ccc(OCc3cccc(OCc4nc5ccccc5s4)c3)cc2N1` [Example 41, 7-[3-(2-benzothiazolylmethoxy)benzyloxy]-1,2,3,4-tetrahydroquinolin-2-one]: the inhibition at 10 µM in assay [1] amounted to 34%. For the same compound, the Kd in assay [2] was 128000 nM.

As to `O=C1CCc2ccc(OCc3ccc(OCc4nc5ccccc5s4)cc3)cc2N1` [Example 42, 7-(4-(2-benzothiazolylmethoxy)benzyloxy]-1,2,3,4-tetrahydroquinolin-2-one], the inhibition at 10 µM in assay [1] turned out to be 17%. Moreover, in assay [2], the Kd came to 83600 nM.

Take `CCOCCn1c(COc2cccc(COc3ccc(C)c4c3C(C)(C)C(=O)N4)c2)nc2ccccc21` [Example 43, 4-(3-(N-ethoxylethylbenzimidazol-2-yl-methoxy)benzyloxy)-3,3,7-trimethyl-2,3-dihydro-1H-indol-2-one]: the Kd amounted to 5510 nM in assay [1] and 6060 nM in assay [2].

`CCOCCn1c(COc2cccc(COc3ccc4c(c3)SCC(=O)N4)c2)nc2ccccc21` [Example 44, 7-[3-(N-ethoxylethylbenzimidazol-2-yl-methoxy)benzyloxy]-3,4-dihydro-2H-1,4-benzothiazin-3-one]: the values for the Kd in assay [1] and in assay [2] were 6300 nM and 8670 nM, respectively.

Take `CCOCCn1c(COc2ccc(COc3ccc(C)c4c3C(C)(C)C(=O)N4)cc2)nc2ccccc21` [Example 45, 4-[4-(N-ethoxylethylbenzimidazol-2-yl-methoxy)benzyloxy]-3,3,7-trimethyl-2,3-dihydro-1H-indol-2-one]: in assay [1], the inhibition at 10 µM was 32%. The inhibition at 100 µM in assay [2] was 40%.

As to `CCOCCn1c(COc2ccc(COc3ccc4c(c3)SCC(=O)N4)cc2)nc2ccccc21` [Example 46, 7-[(N-ethoxyethylbenzimidazol-2-yl-methoxy)benzyloxy]-3,4-dihydro-2H-1,4-benzothiazin-3-one], the Kd in assay [1] (0.2 nM [^3 H]leukotriene D4, pH 7.5, 22° C., 30 minutes, calculated from IC50) is 6400 nM; in assay [2] (0.5 nM [^3 H]mepyramin, pH 7.5, 37° C., 30 minutes, calculated from IC50 with Cheng-Prusoff formula), 5950 nM.

For `Cc1ccc(OC(=O)c2cccc(OCc3ccc4ccccc4n3)c2)c2cc(C#N)c(=O)[nH]c12` [Example 53, 3-cyano-8-methyl-5-[3-(2-quinolinylmethoxy)benzoyloxy]-1,2-dihydroquinolin-2-one], the Kd in assay [1] was found to be 16 nM. Besides, the inhibition at 100 µM in assay [2] was determined as 38%.

Take `Cc1ccc(OC(=O)c2cccc(OCc3ccc4ccccc4n3)c2)c2c1NC(=O)CC2` [Example 54, 8-Methyl-5-[3-(2-quinolinylmethoxy)benzoyloxy]-1,2,3,4-tetrahydroquinolin-2-one]: the Kd in assay [1] was determined as 129 nM. For the same compound, the inhibition at 100 µM in assay [2] turned out to be 41%.

With `O=C1CCc2cc(OC(=O)c3cccc(OCc4ccc5ccccc5n4)c3)ccc2N1` [Example 55, 6-[3-(2-Quinolinylmethoxy)benzoyloxy]-1,2,3,4-tetrahydroquinolin-2-one], the Kd in assay [1] turned out to be 348 nM. Further, the inhibition at 100 µM in assay [2] worked out at 43%.

With `O=C1CCc2ccc(OC(=O)c3cccc(OCc4ccc5ccccc5n4)c3)cc2N1` [Example 56, 7-[3-(2-Quinolinylmethoxy)benzoyloxy]-1,2,3,4-tetrahydroquinolin-2-one], the inhibition at 100 µM in assay [1] stood at 12%. Further, the Kd in assay [2] came out at 93000 nM.

Take `O=C1CCCc2cc(OC(=O)c3cccc(OCc4ccc5ccccc5n4)c3)ccc2N1` [Example 57]: in assay [1] (read-out: LTD4 receptor, dissociation constant KD (converted)), the Ki is 851 nM. In assay [2], the Kd was 57900 nM.

As for `CC1(C)C(=O)Nc2ccc(OC(=O)c3cccc(OCc4ccc5ccccc5n4)c3)cc21` [Example 59, 3,3-Dimethyl-5-[3-(2-quinolinylmethoxy)benzoyloxy]-2,3-dihydro-1H-indol-2-one], the inhibition at 100 µM in assay [1] is 53%; in assay [2] it was 37%.

`CC1(C)C(=O)Nc2cc(OC(=O)c3cccc(OCc4ccc5ccccc5n4)c3)ccc21` [Example 60, 3,3-Dimethyl-6-[3-(2-quinolinylmethoxy)benzoyloxy]-2,3-dihydro-1H-indol-2-one]: the Kd in assay [1] was determined as 223 nM. Also, in assay [2], the inhibition at 100 µM was found to be 38%.

As for `CC1(C)C(=O)Nc2c(OC(=O)c3cccc(OCc4ccc5ccccc5n4)c3)cccc21` [Example 61, 3,3-Dimethyl-7-[3-(2-quinolinylmethoxy)benzoyloxyl]2,3-dihydro-1H-indol-2-one], in assay [1], the inhibition at 10 µM worked out at 27%. For the same compound, in assay [2], the inhibition at 100 µM worked out at 28%.

As to `Cc1ccc(OC(=O)c2ccc(OCc3ccc4ccccc4n3)cc2)c2c1NC(=O)CC2` [Example 63, 8-Methyl-5-(4-(2-quinolinylmethoxy)benzoyloxy]-1,2,3,4-tetrahydroquinolin-2-one], the Kd in assay [1] stood at 30.6 nM. For the same compound, the inhibition at 100 µM in assay [2] was 40%.

Turning to `O=C1CCc2cc(OC(=O)c3ccc(OCc4ccc5ccccc5n4)cc3)ccc2N1` [Example 64, 6-[4-(2-Quinolinylmethoxy)benzoyloxy]-1,2,3,4-tetrahydroquinolin-2-one], the inhibition at 100 µM in assay [1] was 12%; in assay [2], 40%.

`O=C1CCc2ccc(OC(=O)c3ccc(OCc4ccc5ccccc5n4)cc3)cc2N1` [Example 65, 7-(4-(2-Quinolinylmethoxy]benzoyloxy]-1,2,3,4-tetrahydroquinolin-2-one]: the inhibition at 100 µM is 13% in assay [1] and 43% in assay [2].

Take `CC1(C)C(=O)Nc2ccc(OC(=O)c3ccc(OCc4ccc5ccccc5n4)cc3)cc21` [Example 67, 3,3-Dimethyl-5-[4-(2-quinolinylmethoxy)benzoyloxy]-2,3-dihydro-1H-indol-2-one]: the values for the inhibition at 100 µM in assay [1] and in assay [2] were 52% and 49%, respectively.

With `CC1(C)C(=O)Nc2cc(OC(=O)c3ccc(OCc4ccc5ccccc5n4)cc3)ccc21` [Example 68, 3,3-Dimethyl-6-(4-(2-quinolinylmethoxy)benzoyloxy]-2,3-dihydro-1H-indol-2-one], the Kd in assay [1] was determined as 428 nM. In addition, the inhibition at 100 µM in assay [2] amounted to 28%.

As to `CC1(C)C(=O)Nc2c(OC(=O)c3ccc(OCc4ccc5ccccc5n4)cc3)cccc21` [Example 69, 3,3-Dimethyl-7-(4-(2-quinolinylmethoxy)benzoyloxyy]-2,3-dihydro-1H-indol-2-one], the Kd in assay [1] was 331 nM. Further, the inhibition at 100 µM in assay [2] came out at 33%.

Regarding `O=C1CSc2c(cccc2NC(=O)c2cccc(OCc3ccc4ccccc4n3)c2)N1` [Example 70, 8-(3-(2-Quinolinylmethoxy)benzoylamino]-3,4-dihydro-2H-1,4-benzothiazin-3-one], the Kd in assay [1] amounted to 208 nM. Moreover, the inhibition at 100 µM in assay [2] is 37%.
